Assay [1] deals with EBP (zymostenol accumulation in EpiSC-derived OPCs). Kind of assay: GC/MS-based sterol profiling, zymostenol accumulation in OPCs. Conditions: Mus musculus, 24 h, EpiSC-derived OPCs, 24 hr treatment, 8 doses from 0.15 nM to 333 nM; read-out: Zymostenol GCMS EC50. Type of assay: cell-based, mouse. The method, then:
To assess effects of treatments on OPCs, all treatments were assayed in two or more independent platings of epiblast stem cell-derived OPCs ([…]-derived OPCs were obtained using in vitro differentiation protocols and culture conditions described previously (Najm et al, 2011, Nature Methods). OPCs were expanded and frozen down in aliquots. OPCs were thawed into growth conditions for at least one passage before use in further assays. Sterols were monitored using a modified Folch wash protocol (Hubler et al, 2018, Nature). EpiSC-derived OPCs were plated at 100,000 cells per well in PO- and laminin-coated 96-well plates in N2B27 media without growth factors. After 24 hours, cells were rinsed with saline and plates were frozen. Cholesterol-d7 standard was then added to each well before drying under nitrogen stream and derivatization with 55 μl of bis(trimethylsilyl) trifluoroacetamide. After derivatization, 2 μl were analyzed by gas chromatography/mass spectrometry using an Agilent 5973 Network Mass Selective Detector equipped with a 6890 gas chromatograph system and a HP-5MS capillary column (30 m×0.25 mm×0.25 mm). Samples were analyzed in full scan mode using electron impact ionization; ion fragment peaks were integrated to calculate sterol abundance, and quantitation was relative to cholesterol-d7. […] All standards were obtained from Avanti Polar Lipids unless otherwise indicated. Calibration curves were generated by injecting varying concentrations of sterol standards and maintaining a fixed amount of cholesterol-D7. For normalized zymostenol accumulation results, the total amount of zymostenol measured after drug treatment was divided by the total amount of zymostenol accumulated after 24 hr treatment with 100 nM positive control reference.

Assay [2] has as its target human emopamil binding protein and human 7-dehydrocholesterol reductase co-expressing cells (hEBP-DHCR7 membrane) (Homo sapiens (Human), UniProt Q15125). Kind of assay: Radioligand filter binding assay on hEBP-DHCR7 membrane. The conditions noted are these: [3H]-(S)-6-(2-Methyl-3-(6-(trifluoromethyl)pyridin-3-yl)propyl)-2-thia-6-azaspiro[3.4]octane 2,2-dioxide radioligand, HEK293 membrane co-expressing hEBP and hDHCR7. As for the experimental part:
Membrane Preparation: human emopamil binding protein and human 7-dehydrocholesterol reductase co-expressing cells were generated by transient transfecting host human embryonic kidney (HEK) 293 cells with 2 DNA constructs containing each protein's coding sequence. Cells were suspension cultured at 37° C. with 5% CO2 in […] 293 Expression Medium (Thermofisher). Whole cell membrane was prepared by harvesting the cell pellet, adding cold membrane buffer (50 mM Tris, pH7.5, lx Roche COMPLETE EDTA-free protease inhibitor cocktail) 10 times volume of the cell pellets weight, lysing cell pellet on ice by using Dounce homogenizer, spinning at 200 g 4° C. for 15 min, collecting supernatant and spinning again at 25000 g 4° C. for 50 min, transferring pellet to Dounce homogenizer, re-suspending pellet by homogenizing in membrane buffer on ice to reach ˜25 mg/mL, then keeping whole cell membrane aliquots at −80° C.
Compounds were prepared in a 96-well U bottom plate using an Echo550 machine and 10 mM compound DMSO stock solution, followed by an 8-dose 5-fold serial dilutions protocol with final testing compound concentration ranging from 0.06 to 5000 nM, with DMSO back fill to 100 nL/well and n=2. […] The UniFilter-96 GF/B plates were pre-treated by adding 50 μl/well of 0.3% (v/v) PEI to UniFilter-96 GF/B plates. The plates were sealed and incubated at 4° C. for 3 hrs. Then, the plates were washed with ice-cold assay buffer 3 times. The radioligand binding assay was prepared by adding assay buffer diluted hEBP-DHCR7 membrane at 66.7 μg/ml×150 μl/well into the 96-well compound plate to reach 10 μg membrane per well. Then, the assay buffer diluted [3H]—(S)-6-(2-Methyl-3-(6-(trifluoromethyl)pyridin-3-yl)propyl)-2-thia-6-azaspiro[3.4] octane 2,2-dioxide was added at 25 nM×50 μl/well. Following this, the plate was centrifuged at 1000 rpm for 30 secs. The plate was then sealed and agitated at 600 rpm at 22° C. for 5 min, and then incubated at 22° C. for 3 hrs. The incubation was stopped by transferring the binding solution to the pre-treated UniFilter-96 GF/B plate, vacuum filtrated, and then washed four times with ice-cold assay buffer. Following this, the plates were dried at 37° C. for 45 min. The plates were then sealed at the bottom. 40 μl/well of scintillation cocktail was added to the plates. A MicroBeta2 microplate counter was then used to read the plate and analyze the data. For reference and test compounds, the results are expressed as % Inhibition, using the normalization equation: N=100−100×(U−C2)/(C1−C2), where U is the unknown value, C1 is the average of high controls, and C2 is the average value of low controls. The IC50 was determined by fitting percentage of inhibition as a function of compound concentrations with Hill equation using XLfit. Results are expressed as hEBP-DHCR7 Ki (uM) in Table 4. Ki was calculated as described above. The asterix (*) indicates an isolated isomer or isolated group of isomers, but that the stereochemistry has not been assigned.

Sequence of human emopamil binding protein and human 7-dehydrocholesterol reductase co-expressing cells (hEBP-DHCR7 membrane) (Q15125 whole entry): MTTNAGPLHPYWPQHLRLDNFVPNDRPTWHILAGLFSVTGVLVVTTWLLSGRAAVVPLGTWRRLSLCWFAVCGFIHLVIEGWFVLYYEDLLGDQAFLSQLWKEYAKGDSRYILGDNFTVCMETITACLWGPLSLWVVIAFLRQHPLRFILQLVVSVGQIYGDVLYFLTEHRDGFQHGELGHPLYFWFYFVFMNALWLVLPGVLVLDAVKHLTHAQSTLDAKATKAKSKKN

With `CC(C)n1nc(-c2ccc(C(F)(F)F)cc2)nc1[C@@H]1CC[C@H](N2CCC3(C2)CS(=O)(=O)C3)C1` (single isomer, unassigned) [53C*], the EC50 (usually the concentration at which the effect is half-maximal) in assay [1] came to 1.1 nM. Further, the Ki (commonly a dissociation constant, usually derived from enzyme kinetics or from competition with a known ligand) in assay [2] is 10 nM.
For `O=S1(=O)CC2(CCN([C@@H]3CCC[C@H](c4ccc(C(F)(F)F)nc4)C3)C2)C1` (single isomer, unassigned) [54A*], the EC50 in assay [1] stood at 61 nM. The compound further gave a Ki in assay [2] of 21 nM.
The corresponding values for `O=S1(=O)CC2(CCN([C@H]3CCC[C@@H](c4ccc(C(F)(F)F)nc4)C3)C2)C1` (single isomer, unassigned) [54C*] are > 330 nM and 347 nM.
The corresponding values for `CC(C)n1nc(C(F)(F)F)cc1[C@@H]1CCC[C@@H](N2CCC3(C2)CS(=O)(=O)C3)C1` (single isomer, unassigned) [61A*] are > 330 nM and 80 nM.
The corresponding values for `CC(C)n1nc(C(F)(F)F)cc1[C@H]1CCC[C@@H](N2CCC3(C2)CS(=O)(=O)C3)C1` (single isomer, unassigned) [61B*] are 100 nM and 23 nM.
Turning to `CC(C)n1nc(C(F)(F)F)cc1[C@H]1CCC[C@H](N2CCC3(C2)CS(=O)(=O)C3)C1` (single isomer, unassigned) [61D*], the EC50 in assay [1] is > 330 nM. Also, affinity in assay [2] was put at a Ki of 344 nM.
In the case of `O=S1(=O)CC2(CCN([C@@H]3CCCN(c4ccc(C(F)(F)F)nc4)C3)C2)C1` (single isomer, unassigned) [66A*], in assay [1], the EC50 was > 330 nM. The same compound registered an inhibition constant Ki in assay [2] of 1980 nM.
As for `O=S1(=O)CC2(CCN([C@H]3CCCN(c4ccc(C(F)(F)F)nc4)C3)C2)C1` (single isomer, unassigned) [66B*], the EC50 in assay [1] was found to be 12 nM. Also, the inhibition constant (Ki) in assay [2] came out at 61 nM.
On to `O=S1(=O)CC[C@@]2(CCCN([C@H]3CC[C@@H](c4ccc(C(F)(F)F)cn4)CC3)C2)C1` (single isomer, unassigned) [68A*], for which, in assay [1], the EC50 worked out at 190 nM.
Same read-out and setting: as for `O=S1(=O)CC[C@]2(CCCN([C@H]3CC[C@@H](c4ccc(C(F)(F)F)cn4)CC3)C2)C1` (single isomer, unassigned) [68C*], the figure is > 330 nM.
Take `O=S1(=O)CC[C@]2(CCCN([C@H]3CC[C@H](c4ccc(C(F)(F)F)cn4)CC3)C2)C1` (single isomer, unassigned) [68D*]: the concentration for a half-maximal effect (EC50) in assay [1] came to 42 nM.
As for `O=S1(=O)CC[C@@]2(CCCN([C@H]3CC[C@H](c4cc(C(F)(F)F)nn4C4CC4)CC3)C2)C1` (single isomer, unassigned) [69B*], the EC50 in assay [1] came out at 23 nM. The compound further registered a Ki in assay [2] of 35 nM.
As to `O=S1(=O)CC[C@]2(CCCN([C@H]3CC[C@H](c4cc(C(F)(F)F)nn4C4CC4)CC3)C2)C1` (single isomer, unassigned) [69D*], the EC50 in assay [1] worked out at 58 nM. Also, the affinity in assay [2], expressed as Ki, was 50 nM.
As for `O=S1(=O)CC[C@@]2(CCCN([C@H]3CC[C@H](c4ccc(C(F)(F)F)nc4)CC3)C2)C1` (single isomer, unassigned) [71B*], the EC50 in assay [1] came to 280 nM.
On the same count and under the same terms, as for `O=S1(=O)CC[C@]2(CCCN([C@H]3CC[C@@H](c4ccc(C(F)(F)F)nc4)CC3)C2)C1` (single isomer, unassigned) [71C*], the figure is 62 nM.
Consider `O=S1(=O)CC[C@]2(CCCN([C@H]3CC[C@H](c4ccc(C(F)(F)F)nc4)CC3)C2)C1` (single isomer, unassigned) [71D*], for which the EC50 in assay [1] was > 330 nM.
Consider `CC(C)n1nc(C(F)(F)F)cc1[C@@H]1CCC[C@@H](N2CCC3(CC2)CS(=O)(=O)C3)C1` (single isomer, unassigned) [78A*], for which the EC50 in assay [1] was > 330 nM. Besides, in assay [2], the Ki amounted to 71 nM.
Consider `CC(C)[C@@H]1C[C@@H](N2CCC3(C2)CS(=O)(=O)C3)CCN1c1ccc(C(F)(F)F)nc1` (single isomer, unassigned) [82B*], for which the EC50 in assay [1] was 19 nM. The same compound showed a Ki in assay [2] of 46 nM.
The corresponding values for `CC(C)n1nc(C(F)(F)F)cc1[C@H]1CC[C@H](N2CCC[C@@]3(CCS(=O)(=O)C3)C2)CC1` (single isomer, unassigned) [91B*] are 60 nM and 310 nM.
With `CC(C)n1nc(C(F)(F)F)cc1[C@H]1CC[C@@H](N2CCC[C@]3(CCS(=O)(=O)C3)C2)CC1` (single isomer, unassigned) [91C*], in assay [1], the EC50 was 8.2 nM.
For `CC(C)n1nc(C(F)(F)F)cc1[C@H]1CC[C@H](N2CCC[C@]3(CCS(=O)(=O)C3)C2)CC1` (single isomer, unassigned) [91D*], the EC50 in assay [1] amounted to 50 nM.
As for `CC(C)C1C[C@H](N2CCC3(C2)CS(=O)(=O)C3)CCN1c1ccc(C(F)(F)F)nc1` (stereo in doubt) [82A*, 6-((2R,4R)-2-Isopropyl-1-(6-(trifluoromethyl)pyridin-3-yl)piperidin-4-yl)-2-thia-6-azaspiro[3.4]octane 2,2-dioxide], the EC50 in assay [1] was 280 nM. The Ki in assay [2] came out at 89 nM.
Regarding `CC(C)[C@H]1CC(N2CCC3(C2)CS(=O)(=O)C3)CCN1c1ccc(C(F)(F)F)nc1` (stereo in doubt) [82C*, 6-((2R,4S)-2-isopropyl-1-(6-(trifluoromethyl)pyridin-3-yl)piperidin-4-yl)-2-thia-6-azaspiro[3.4]octane 2,2-dioxide], the 50% effective concentration (EC50) in assay [1] is > 330 nM. The compound further displayed a Ki in assay [2] of 36 nM.
In the case of `CC(C)[C@@H]1C[C@H](N2CCC3(C2)CS(=O)(=O)C3)CCN1c1ccc(C(F)(F)F)nc1` (stereo in doubt) [82D*, 6-((2S,4R)-2-isopropyl-1-(6-(trifluoromethyl)pyridin-3-yl)piperidin-4-yl)-2-thia-6-azaspiro[3.4]octane 2,2-dioxide], the EC50 in assay [1] is > 330 nM. The same compound yielded a Ki in assay [2] of 100 nM.
The like results for `O=S1(=O)CC2(CCN([C@H]3CC[C@H](c4ccc(C(F)(F)F)nc4)CC3)CC2)C1` [81A*, 7-((1r,4r)-4-(6-(Trifluoromethyl)pyridin-3-yl)cyclohexyl)-2-thia-7-azaspiro[3.5]nonane 2,2-dioxide] were, in that order, 36 nM and 85 nM.
For the compound `O=S1(=O)CC2(CCN([C@H]3CC[C@H](c4ccnc(C(F)(F)F)c4Cl)CC3)C2)C1` [Compound 92A, 6-((1r,4r)-4-(3-Chloro-2-(trifluoromethyl)pyridin-4-yl)cyclohexyl)-2-thia-6-azaspiro[3.4]octane 2,2-dioxide], the EC50 in assay [1] turned out to be 36 nM.
Same read-out and setting: the figure for `O=S1(=O)CC2(CCN([C@H]3CC[C@@H](c4ccnc(C(F)(F)F)c4Cl)CC3)C2)C1` [Compound 92B, 6-((1s,4s)-4-(3-chloro-2-(trifluoromethyl)pyridin-4-yl)cyclohexyl)-2-thia-6-azaspiro[3.4]octane 2,2-dioxide] is 5.2 nM; for `O=S1(=O)CC2(CCCN([C@H]3CC[C@H](c4ccnc(C(F)(F)F)c4)CC3)C2)C1` [Compound 93, 6-((1r,4r)-4-(2-(Trifluoromethyl)pyridin-4-yl)cyclohexyl)-2-thia-6-azaspiro[3.5]nonane 2,2-dioxide] it is 12 nM.

The record behind these values is US20240398781A1, “SPIROCYCLIC CYCLIC MODULATORS OF CHOLESTEROL BIOSYNTHESIS AND THEIR USE FOR PROMOTING REMYELINATION” (GENENTECH, INC., priority 2021, published 2024).
